Test results as given in patent publication US6465614B1, “High-affinity response-selective C-terminal analogs of C5a anaphylatoxin” (priority 1994, dated 2002).
Where two headings read alike, the source gives them in different places. Ends that are not written are not given here.

Assays:
human neutrophils (PMN) [1] = molecular target: T1, human neutrophils (PMN) (Homo sapiens, UniProt P21730); assay type: cell-based; conditions: human neutrophils, β-glucuronidase release; read-out: PMN Enzyme Release EC50
T1 sequence (P21730 1-350): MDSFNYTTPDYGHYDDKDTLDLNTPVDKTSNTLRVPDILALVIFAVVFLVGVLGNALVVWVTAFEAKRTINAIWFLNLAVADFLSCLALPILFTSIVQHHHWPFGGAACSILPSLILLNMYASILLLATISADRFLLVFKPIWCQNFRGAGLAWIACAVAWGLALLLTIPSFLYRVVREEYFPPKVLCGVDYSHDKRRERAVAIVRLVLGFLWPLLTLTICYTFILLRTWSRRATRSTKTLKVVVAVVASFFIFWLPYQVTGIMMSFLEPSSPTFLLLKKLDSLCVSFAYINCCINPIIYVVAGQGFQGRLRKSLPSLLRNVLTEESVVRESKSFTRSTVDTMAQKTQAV
Procedure: The release of glucuronidase from human neutrophils was determined as described by Schroder et al. (1987), J. Immunol., 139: 3474-3483. Briefly, human neutrophils were pretreated with cytochalasin B (5 μg/ml, 10 min, 37° C.). The cells (10^6) were incubated in the presence of stimulants for 60 minutes at 37° C. in a final volume of 200 μl and then centrifuged. The supernatant was collected and 50 μl were incubated with 50 μl of 0.01 M P-nitrophenyl-β-D-glucuronide (in 0.1 M sodium acetate at pH 4 for 18 h) as triplicate determinations in 96-well microtiter plates (Corning). The reaction was stopped by addition of 100 μl of 0.4 M gly buffer at pH 10. The reaction developed color that was read at 405 nm in a Titertec Multiscan (MCC/340) ELISA reader. The β-glucuronidase released was expressed as the percentage of total enzyme in the cell that could be released by addition of 0.2% Triton X-100 (Pierce).

human neutrophils (PMN) [2] = molecular target: T1, human neutrophils (PMN); assay type: cell-based; conditions: human neutrophils; read-out: PMN Polarization EC50
Procedure: Neutrophil polarization assays were conducted as described by Ember et al., 1992, supra. Human neutrophils (PMN) were prepared according to the procedure described by Dahinden et al. (1979), J. Immunol., 130: 857-862. The assay for measuring the effect of C5a analogs on PMN polarization was described by Haston & Shields (1985), J. Immunol. Methods, 81: 229-237. Briefly, PMN (1×10^6 cells/ml) were suspended in 10 mM 3- (N-morpholino) propane sulfonic acid (Sigma Chemical Co.) containing EBSS. […] After 10 minutes of incubation at room temperature, the cells were washed twice and stored until microscopic examination. Cells deviating from the typical spherical shape were visually scored as polarized. Results are expressed as percent of polarized cells per total cells counted (300 cells counted/sample).

guinea-pig platelets = assay: Guinea-pig platelet aggregation assay; assay type: cell-based; conditions: for Platelet Aggreg (threshold concentration producing visible platelet aggregation): guinea-pig platelets, threshold response
Procedure: This assay was performed on platelets obtained from the arterial blood of anesthetized male Hartley guinea pigs according to previously published methods (Ember et al., 1992, supra). Briefly, platelet-rich plasma was prepared and diluted to 3×10^8 platelets/ml in 0.39% sodium citrate solution. Peptide samples were diluted in a stepwise fashion in 1.5-fold dilutions and placed in 96-well microplates. A […] peptide sample, […] of platelet-rich plasma, and one 3 mm glass bead were placed in each well. The plates were shaken horizontally at 100 rpm for 5 min at 37° C. Platelet aggregation was evaluated visually in an inverted microscope at 40× magnification. The greatest dilution of peptide producing visible aggregation was scored as the threshold concentration for activity. Natural C5a and C3a were included as internal standards. At least three independent duplicate determinations were conducted for every peptide.

[3] = test system: guinea-pig lung parenchyma; assay: Smooth muscle contraction of guinea-pig lung parenchyma; assay type: cell-based; conditions: arithmetic mean
Procedure: (§1) Each tissue preparation was equilibrated for 1 hr prior to testing with peptides. All drugs were kept on ice during the procedure and isometric tensions were measured using strain-gauge transducers (Grass FT-03) with a computerized chart recording system (MacLab/8). After the contraction to each peptide reached a plateau, histamine (10 μM) was added to obtain the maximum tissue response. Because tachyphylaxis occurs rapidly to single doses of C5a or peptides, cumulative dose-response curves could not be obtained. Instead, the dose-response profile was compiled from multiple strips from each tissue. After exposing each strip to a single concentration of the peptide followed by supramaximal histamine, the response was expressed as a percentage of the maximal contraction to histamine. Full dose-response curves for C5a (human recombinant C5a; Sigma) or individual peptides were performed in each experiment for each tissue and the EC50 values (i.e., concentration of peptide producing 50t of the maximal response to each peptide) obtained by probit analysis. pD2 transforms [−log EC50 (M)] were calculated for each dose-response curve, and means ±SE obtained for each peptide.

human fetal artery = molecular target: T2, human fetal artery (Homo sapiens, UniProt P21730); assay: Smooth muscle contraction of human fetal artery (spasmogenic assay); assay type: cell-based; conditions: for log potency ratio at the EC50 level compared to C5a / % of C5a potency: fetal artery; for % of C5a potency: from log potency ratio at EC50 level
T2 sequence (P21730 1-350): T1 sequence (P21730 1-350)
Procedure: as §1, with “Tissue strips were suspended in 2 ml organ baths, containing physiological salt solution (Krebs-Ringers solution: 118 mM NaCl, 4.7 mM KCl, 2.5 mM CaCl2, 25 mM NaHCO3, 1.2 mM KH2PO4, 1.2 mM MgSO4, 10 mM Glucose) maintained at 37° C., pH 7.4 and continuously aerated with a […] mixture. Each” for “Each”
Human umbilical cords were obtained from the Mater Misericordiae Hospital, South Brisbane, Queensland within minutes of delivery. The mid-section of the umbilical cord was cut from the placenta, placed in physiological salt solution and stored at 5° C. for up to 24 hrs. […] The fetal arteries were dissected out and cut into longitudinal strips. The intimal surface of the arteries was rubbed with a cotton bud to remove the endothelium. Strips approximately 2 cm×3 mm were suspended in organ baths under 20 mN of resting tension. Arterial strips were tested repeatedly with peptides following a 60 min drug-free period of rest between assays (Taylor et al. (1994), Inflammation, in press).

serum carboxypeptidases = assay: Stability toward serum carboxypeptidases (incubation in normal human serum, HPLC); assay type: in vitro ADME; conditions: 37° C., 1 h
Procedure: FIG. 10. HPLC profiles of decapeptide analogs. FIG. 10A: HPLC of […] (peptide/Sequence I.D. No. 2); a=purified peptide; b=des-Arg peptide ([…]; Sequence I.D. No. 24); c=des-Arg peptide in saline, no incubation; d=des-Arg peptide in saline with incubation for 1 h at 37° C.; e=des-Arg peptide in normal human serum with incubation for 1 h at 37° C. FIG. 10B: HPLC of […]aR (Sequence I.D. No. 10); a=purified peptide; b=peptide in saline, no incubation; c=peptide in saline with incubation for 1 h at 37° C.; d=peptide in normal human serum with incubation for 1 h at 37° C. Solvent system 1: 70 mM triethylamine/phosphoric acid buffer, pH-2.3. Solvent system 2: 60% acetonitrile in the Solvent 1 buffer. Linear gradient of 30-50% solvent 2 at.1%/min, slope=1 ml/min, absorbance monitored at 214 nm.
Both peptides were incubated in normal human serum at 37° C. for 1 h and thereafter reanalyzed on HPLC.

Compound | EC50 (human neutrophils (PMN) [1]) | EC50 (human neutrophils (PMN) [2]) | Platelet Aggreg (threshold concentration producing visible platelet aggregation) (guinea-pig platelets) | EC50 [3] | log potency ratio at the EC50 level compared to C5a (human fetal artery) | % of C5a potency (human fetal artery) | potency relative to the C-terminal 19-mer of natural sequence (human fetal artery; smooth muscle contraction of human fetal artery (FIG. 1)) | cleavage of the C-terminal Arg (serum carboxypeptidases) | potency relative to peptide 2 in platelet aggregation (guinea-pig platelets; more potent than peptide 2) | potency relative to peptide 2 in spasmogenic activity (human fetal artery; more potent than peptide 2)
YSFKDMQLGR-OH [peptide 2] | 50 µM | 4 µM | 22.9 µM | 28.4 µM | 2.78±0.10 | 0.2% | about 20 times |  |  | 
CSCC[C@H](NC(=O)[C@H](CC(=O)O)NC(=O)[C@H](CCCCN)NC(=O)[C@H](Cc1ccccc1)NC(=O)[C@H](CO)NC(=O)[C@@H](N)Cc1ccc(O)cc1)C(=O)N1CCC[C@H]1C(=O)N[C@@H](CC(C)C)C(=O)N[C@H](C)C(=O)N[C@@H](CCCNC(=N)N)C(=O)O [peptide 10] | 57.7 µM | 2.1 µM | 1.3 µM |  | 1.42±0.13 | 4% |  | none | about 18 fold | about 32 fold
